From ChEMBL document CHEMBL1201862, “PubChem BioAssay data set” (2004)
Calls of active or inactive are those of the source. Bridge positions count the residues as written; N and C are the ends. Square brackets hold non-standard residues; d marks the D form. Peptide text beside a SMILES is read from it. * marks the point of attachment. X1 = CCC(C)C(N)C1=NC(C(=O)*)CS1; dOrn = NCCC[C@@H](N)C(=O)O

Experiments:
[1] = biological target: T1, Endoribonuclease toxin MazF (Escherichia coli K-12, UniProt P0AE70); assay: activation of MazEF endoribonuclease cleavage – biochemical, fluorescence, single-stranded RNA substrate, uHTS hits, dose response (AID 588481); format: functional
T1 sequence (P0AE70 whole entry): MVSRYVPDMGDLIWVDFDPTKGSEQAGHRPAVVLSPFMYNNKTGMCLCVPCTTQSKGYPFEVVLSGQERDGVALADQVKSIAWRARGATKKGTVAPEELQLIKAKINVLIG

[2] = biological target: T1, Endoribonuclease toxin MazF; assay: substrate-only fluorescence increase artefacts – biochemical, single-stranded RNase substrate, counter-screen for MazEF activator project, dose response (AID 588502); format: functional
[3] = biological target: T2, Polyadenylate-binding protein 1 (Homo sapiens, UniProt P11940); assay: MLLE binding blockers, Cy5 peptide tracer – biochemical, fluorescence polarization, Cy5-PAM2 peptide, secondary, miRNA deadenylation inhibitor project, dose response (AID 602260); format: functional; settings: read-out: IC50_Mean
[4] = biological target: T2, Polyadenylate-binding protein 1; assay: MLLE domain peptide-binding blockers, IC50 – biochemical, fluorescence polarization, FITC-PAM2 peptide, dose response (AID 602259); format: functional; settings: read-out: IC50_Mean
[5] = biological target: DNA dC->dU-editing enzyme APOBEC-3G (Homo sapiens, UniProt Q9HC16); assay: inhibition of APOBEC3G ssDNA deamination – biochemical, fluorescence, single-stranded DNA substrate, SAR follow-up (AID 602136); format: functional; settings: read-out: IC50_Mean
[6] = biological target: DNA dC->dU-editing enzyme APOBEC-3A (Homo sapiens, UniProt P31941); assay: SAR analysis of small molecule inhibitors of APOBEC3A DNA Deaminase via a fluorescence-based single-stranded DNA deaminase assay.; format: functional; settings: read-out: IC50_Mean
[7] = intracellular Trypanosoma cruzi inhibitors in host cells – cell-based, plate reader, cherry-pick samples, set 3, dose response (AID 651818); format: functional;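 further: compounds incubated with infected cells for about four days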
[8] = biological target: Voltage-gated inwardly rectifying potassium channel KCNH2 (Homo sapiens, UniProt Q12809); settings: Potency;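 further: confirmatory quantitative high-throughput screen measuring inhibition of hERG channel activity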
Cytochrome P450 3A4 = Cytochrome P450 3A4 (Homo sapiens, UniProt P08684); settings: Potency;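 further: confirmatory qHTS run detecting inhibitors and substrates of CYP3A4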
Cytochrome P450 3A4, sequence (P08684 whole entry): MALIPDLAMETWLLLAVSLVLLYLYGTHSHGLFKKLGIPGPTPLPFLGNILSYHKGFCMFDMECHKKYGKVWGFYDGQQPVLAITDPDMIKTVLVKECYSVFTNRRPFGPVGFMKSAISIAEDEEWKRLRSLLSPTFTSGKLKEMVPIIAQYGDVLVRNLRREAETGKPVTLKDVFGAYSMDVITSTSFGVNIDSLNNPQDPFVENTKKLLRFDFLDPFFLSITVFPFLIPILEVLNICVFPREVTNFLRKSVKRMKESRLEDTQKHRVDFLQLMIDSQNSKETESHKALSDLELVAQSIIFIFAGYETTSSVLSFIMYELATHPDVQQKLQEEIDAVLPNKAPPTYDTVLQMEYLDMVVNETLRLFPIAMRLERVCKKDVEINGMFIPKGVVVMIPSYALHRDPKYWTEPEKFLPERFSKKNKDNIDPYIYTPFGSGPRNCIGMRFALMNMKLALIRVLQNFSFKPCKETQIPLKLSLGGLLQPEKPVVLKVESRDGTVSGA

DNA dC->dU-editing enzyme APOBEC-3A, sequence (P31941 whole entry): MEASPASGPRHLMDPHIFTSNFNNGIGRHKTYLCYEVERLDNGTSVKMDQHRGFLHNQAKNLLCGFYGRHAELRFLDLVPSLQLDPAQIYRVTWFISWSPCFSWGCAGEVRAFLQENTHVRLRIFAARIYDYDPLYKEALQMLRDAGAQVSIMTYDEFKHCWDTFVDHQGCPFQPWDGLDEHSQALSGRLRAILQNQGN
DNA dC->dU-editing enzyme APOBEC-3G, sequence (Q9HC16 whole entry): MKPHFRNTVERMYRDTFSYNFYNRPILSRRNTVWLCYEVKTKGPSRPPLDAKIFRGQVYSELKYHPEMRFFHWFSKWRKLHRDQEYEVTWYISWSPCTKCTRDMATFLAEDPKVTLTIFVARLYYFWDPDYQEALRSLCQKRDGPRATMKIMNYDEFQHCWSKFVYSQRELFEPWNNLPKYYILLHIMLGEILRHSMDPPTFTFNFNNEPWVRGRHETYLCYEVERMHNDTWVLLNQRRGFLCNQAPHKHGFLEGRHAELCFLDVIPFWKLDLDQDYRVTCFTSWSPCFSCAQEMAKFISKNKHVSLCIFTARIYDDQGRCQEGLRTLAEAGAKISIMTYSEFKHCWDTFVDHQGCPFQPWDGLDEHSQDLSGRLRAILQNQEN
Voltage-gated inwardly rectifying potassium channel KCNH2, sequence (Q12809 whole entry): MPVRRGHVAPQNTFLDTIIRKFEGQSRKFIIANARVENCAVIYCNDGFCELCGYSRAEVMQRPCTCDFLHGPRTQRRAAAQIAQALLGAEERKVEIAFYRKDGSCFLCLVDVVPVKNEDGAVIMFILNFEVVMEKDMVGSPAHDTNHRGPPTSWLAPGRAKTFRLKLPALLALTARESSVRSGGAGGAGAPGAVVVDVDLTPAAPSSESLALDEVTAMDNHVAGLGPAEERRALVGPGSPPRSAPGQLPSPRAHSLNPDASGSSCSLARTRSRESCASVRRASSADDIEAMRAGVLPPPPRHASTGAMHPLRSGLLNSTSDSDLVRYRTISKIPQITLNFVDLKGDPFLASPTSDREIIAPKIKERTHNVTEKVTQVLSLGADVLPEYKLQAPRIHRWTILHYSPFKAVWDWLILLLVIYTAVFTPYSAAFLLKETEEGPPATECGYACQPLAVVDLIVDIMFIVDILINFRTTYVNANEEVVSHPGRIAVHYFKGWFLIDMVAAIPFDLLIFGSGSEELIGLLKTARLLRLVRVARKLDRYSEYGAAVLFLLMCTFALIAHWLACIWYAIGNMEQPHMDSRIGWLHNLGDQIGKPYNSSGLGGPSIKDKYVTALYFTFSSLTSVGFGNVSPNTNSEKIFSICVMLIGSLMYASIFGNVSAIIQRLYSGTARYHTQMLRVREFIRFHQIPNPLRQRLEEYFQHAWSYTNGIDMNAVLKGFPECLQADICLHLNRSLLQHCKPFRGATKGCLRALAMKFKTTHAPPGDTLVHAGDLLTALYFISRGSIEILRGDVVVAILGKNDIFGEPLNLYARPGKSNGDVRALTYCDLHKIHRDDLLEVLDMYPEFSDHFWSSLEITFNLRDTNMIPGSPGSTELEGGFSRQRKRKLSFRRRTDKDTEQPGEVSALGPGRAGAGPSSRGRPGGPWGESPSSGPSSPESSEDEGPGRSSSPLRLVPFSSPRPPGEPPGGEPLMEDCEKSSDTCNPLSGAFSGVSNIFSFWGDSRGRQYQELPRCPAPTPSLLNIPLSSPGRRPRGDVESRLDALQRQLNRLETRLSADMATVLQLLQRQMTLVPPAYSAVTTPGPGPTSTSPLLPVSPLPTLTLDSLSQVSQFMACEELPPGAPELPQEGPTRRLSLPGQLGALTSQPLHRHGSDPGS
T2 sequence (P11940 whole entry, the tested form may be a part): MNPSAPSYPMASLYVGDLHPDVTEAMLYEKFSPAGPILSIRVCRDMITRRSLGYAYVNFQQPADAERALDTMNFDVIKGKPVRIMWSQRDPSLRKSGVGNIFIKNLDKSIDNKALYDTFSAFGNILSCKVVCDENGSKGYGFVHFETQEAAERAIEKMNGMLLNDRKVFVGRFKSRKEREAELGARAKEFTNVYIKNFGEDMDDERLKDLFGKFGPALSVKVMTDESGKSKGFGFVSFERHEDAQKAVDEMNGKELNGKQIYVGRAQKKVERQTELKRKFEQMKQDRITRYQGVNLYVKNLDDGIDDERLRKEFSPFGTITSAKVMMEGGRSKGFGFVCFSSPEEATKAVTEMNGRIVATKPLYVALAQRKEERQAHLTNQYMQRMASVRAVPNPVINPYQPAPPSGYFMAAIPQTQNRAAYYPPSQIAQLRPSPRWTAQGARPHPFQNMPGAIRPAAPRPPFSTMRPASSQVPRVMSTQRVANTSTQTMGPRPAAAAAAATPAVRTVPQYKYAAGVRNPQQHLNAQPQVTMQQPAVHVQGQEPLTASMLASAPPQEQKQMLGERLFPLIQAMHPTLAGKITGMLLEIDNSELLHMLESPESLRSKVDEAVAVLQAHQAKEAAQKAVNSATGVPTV

SMILES	IC50 [5]	IC50 [6]	AC50 [7]	also measured
CCOc1ccc(/N=C/C=C(/O)c2ccc(OC)cc2)c([N+](=O)[O-])c1				EC50 [1]: > 99 µM (inactive); EC50 [2]: 6.29 µM (active); IC50 [3]: > 66 µM (inactive); IC50 [4]: > 66 µM (inactive)
CCC(C(=O)Nc1nnc(SCCOC)s1)c1ccccc1 (stereo not drawn)	> 99 µM (inactive)	> 99 µM (inactive)		
Cc1ccc(CC(=O)Nc2nnc(-c3ccncc3)s2)cc1	> 99 µM (inactive)	> 99 µM (inactive)		
CCc1ccc(Nc2nc(Nc3cccc(OC)c3)nc(N3CCOCC3)n2)cc1	47.7 µM (inactive)	> 99 µM (inactive)		
Cc1ccc(S(=O)(=O)N(C)C[C@H]2Oc3ccc(NS(=O)(=O)c4cccs4)cc3CC(=O)N([C@H](C)CO)C[C@H]2C)cc1			2.05 µM (active)	
COc1ccc(NC(=O)Nc2cccc3c2O[C@@H](CN(C)Cc2ccc(C(=O)Nc4ccccc4N)cc2)[C@H](C)CN([C@@H](C)CO)C3=O)cc1			0.535 µM (active)	
COc1ccc(S(=O)(=O)Nc2cccc3c2O[C@H](CN(C)Cc2ccc(C(=O)Nc4ccccc4N)cc2)[C@@H](C)CN([C@H](C)CO)C3=O)cc1			4.11 µM (active)	
CCC(C)C(N)C1=NC(C(=O)N[C@@H](CC(C)C)C(=O)N[C@H](CCC(=O)O)C(=O)N[C@H](C(=O)N[C@H]2CCCCNC(=O)[C@H](CC(N)=O)NC(=O)[C@@H](CC(=O)O)NC(=O)[C@H](Cc3c[nH]cn3)NC(=O)[C@@H](Cc3ccccc3)NC(=O)[C@H]([C@@H](C)CC)NC(=O)[C@@H](CCCN)NC2=O)[C@@H](C)CC)CS1 (stereo partly drawn) (X1-L[dE]IK[dOrn]I[dF]H[dD]N; lactam 4-C)				EC50 [1]: 30.8 µM (inactive); EC50 [2]: 4.71 µM (active)
CNC(=O)OCC[N+](C)(C)C [METHYLCARBAMYLCHOLINE CHLORIDE]				AC50 [8]: 35.5 µM (inconclusive)
CCCN(CCC)c1c([N+](=O)[O-])cc(C(F)(F)F)cc1[N+](=O)[O-] [TRIFLURALIN]				AC50 (Cytochrome P450 3A4): 15.8 µM (inconclusive); AC50 [8]: 14.1 µM (inconclusive)
